According to ChEMBL document CHEMBL2177007, “Indole-derived psammaplin A analogues as epigenetic modulators with multiple inhibitory activities” (J Med Chem, 2012):
The source made the active and inactive calls. The calls are words filed in the database; no cut-off is given here.

What was measured:
[1] = biological target: Histone deacetylase 1 (Homo sapiens) (UniProt Q13547); test: Inhibition of HDAC1 in human U937 cells at 5 uM […]; type: cell-based; conditions: U-937
[2] = Cell cycle arrest in apoptosis in AML patient blasts at 5 uM after 26 hrs; type: functional; conditions: Homo sapiens
[3] = biological target: Histone deacetylase (Homo sapiens) (UniProt Q13547+O15379+Q9UBN7+Q92769+Q9UQL6+Q8WUI4+Q9BY41+Q96DB2+P56524+Q9UKV0+Q969S8); test: Inhibition of HDAC in human U937 cells assessed as induction of histone H3 acetylation at 5 uM after 30 hrs by cytofluorimetric analysis; type: cell-based; conditions: U-937
[4] = biological target: T1, Protein deacetylase HDAC6 (Homo sapiens) (UniProt Q9UBN7); test: Inhibition of HDAC6 in human U937 cells assessed as induction of alpha-tubulin acetylation at 5 uM after 30 hrs by cytofluorimetric analysis; type: cell-based; conditions: U-937
T1 sequence (whole entry): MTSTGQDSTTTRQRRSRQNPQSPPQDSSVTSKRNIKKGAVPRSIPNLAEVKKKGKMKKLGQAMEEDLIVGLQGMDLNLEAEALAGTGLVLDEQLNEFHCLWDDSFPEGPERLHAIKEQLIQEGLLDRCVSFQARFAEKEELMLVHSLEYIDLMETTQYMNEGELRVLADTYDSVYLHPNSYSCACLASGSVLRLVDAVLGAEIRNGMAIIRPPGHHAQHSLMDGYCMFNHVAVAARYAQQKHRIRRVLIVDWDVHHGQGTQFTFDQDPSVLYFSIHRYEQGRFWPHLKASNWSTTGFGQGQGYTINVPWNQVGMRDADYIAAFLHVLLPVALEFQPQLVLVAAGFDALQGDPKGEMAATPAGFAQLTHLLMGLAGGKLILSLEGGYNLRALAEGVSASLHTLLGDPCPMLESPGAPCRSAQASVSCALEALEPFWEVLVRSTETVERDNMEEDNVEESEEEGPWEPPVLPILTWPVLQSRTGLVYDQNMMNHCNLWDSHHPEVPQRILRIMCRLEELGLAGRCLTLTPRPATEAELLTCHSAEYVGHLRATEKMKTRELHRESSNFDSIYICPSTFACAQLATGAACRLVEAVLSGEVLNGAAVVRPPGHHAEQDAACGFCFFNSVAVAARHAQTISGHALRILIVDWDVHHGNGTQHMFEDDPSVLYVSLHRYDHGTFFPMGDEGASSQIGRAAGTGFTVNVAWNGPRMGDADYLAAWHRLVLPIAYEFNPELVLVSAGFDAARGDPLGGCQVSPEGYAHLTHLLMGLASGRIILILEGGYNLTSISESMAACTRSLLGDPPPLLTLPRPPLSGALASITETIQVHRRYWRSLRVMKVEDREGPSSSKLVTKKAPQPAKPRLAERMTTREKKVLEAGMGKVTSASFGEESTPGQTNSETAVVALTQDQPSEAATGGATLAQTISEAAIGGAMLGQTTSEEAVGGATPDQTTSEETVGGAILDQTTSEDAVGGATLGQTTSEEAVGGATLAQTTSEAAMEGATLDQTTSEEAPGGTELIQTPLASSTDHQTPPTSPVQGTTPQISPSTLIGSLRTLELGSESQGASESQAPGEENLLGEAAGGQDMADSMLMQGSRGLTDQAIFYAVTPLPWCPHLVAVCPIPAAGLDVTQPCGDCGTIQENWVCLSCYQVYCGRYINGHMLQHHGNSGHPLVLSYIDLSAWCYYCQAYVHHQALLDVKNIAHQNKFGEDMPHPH

[5] = biological target: Protein kinase C alpha type (Homo sapiens) (UniProt P17252); test: Inhibition of PKCalpha in human U937 cells assessed as p21WAF1/CIP1 expression at 5 uM after 30 hrs by cytofluorimetric analysis; type: cell-based; conditions: U-937
U-937 [6] = test: Induction of cell differentiation in human U937 cells assessed as CD11c expression at 5 uM after 30 hrs by cytofluorimetric analysis; type: functional, cell-based
U-937 [7] = test: Cell cycle arrest in human U937 cells at 5 uM after 24 hrs by cytofluorimetric analysis; type: functional, cell-based
U-937 [8] = test: Induction of apoptosis in human U937 cells at 5 uM after 30 hrs; type: functional, cell-based
[9] = biological target: Histone deacetylase 4 (Homo sapiens) (UniProt P56524); test: Inhibition of HDAC4 in human U937 cells at 5 uM […]; type: cell-based; conditions: U-937
Sequence of Histone deacetylase 4 (Homo sapiens) (P56524 whole entry): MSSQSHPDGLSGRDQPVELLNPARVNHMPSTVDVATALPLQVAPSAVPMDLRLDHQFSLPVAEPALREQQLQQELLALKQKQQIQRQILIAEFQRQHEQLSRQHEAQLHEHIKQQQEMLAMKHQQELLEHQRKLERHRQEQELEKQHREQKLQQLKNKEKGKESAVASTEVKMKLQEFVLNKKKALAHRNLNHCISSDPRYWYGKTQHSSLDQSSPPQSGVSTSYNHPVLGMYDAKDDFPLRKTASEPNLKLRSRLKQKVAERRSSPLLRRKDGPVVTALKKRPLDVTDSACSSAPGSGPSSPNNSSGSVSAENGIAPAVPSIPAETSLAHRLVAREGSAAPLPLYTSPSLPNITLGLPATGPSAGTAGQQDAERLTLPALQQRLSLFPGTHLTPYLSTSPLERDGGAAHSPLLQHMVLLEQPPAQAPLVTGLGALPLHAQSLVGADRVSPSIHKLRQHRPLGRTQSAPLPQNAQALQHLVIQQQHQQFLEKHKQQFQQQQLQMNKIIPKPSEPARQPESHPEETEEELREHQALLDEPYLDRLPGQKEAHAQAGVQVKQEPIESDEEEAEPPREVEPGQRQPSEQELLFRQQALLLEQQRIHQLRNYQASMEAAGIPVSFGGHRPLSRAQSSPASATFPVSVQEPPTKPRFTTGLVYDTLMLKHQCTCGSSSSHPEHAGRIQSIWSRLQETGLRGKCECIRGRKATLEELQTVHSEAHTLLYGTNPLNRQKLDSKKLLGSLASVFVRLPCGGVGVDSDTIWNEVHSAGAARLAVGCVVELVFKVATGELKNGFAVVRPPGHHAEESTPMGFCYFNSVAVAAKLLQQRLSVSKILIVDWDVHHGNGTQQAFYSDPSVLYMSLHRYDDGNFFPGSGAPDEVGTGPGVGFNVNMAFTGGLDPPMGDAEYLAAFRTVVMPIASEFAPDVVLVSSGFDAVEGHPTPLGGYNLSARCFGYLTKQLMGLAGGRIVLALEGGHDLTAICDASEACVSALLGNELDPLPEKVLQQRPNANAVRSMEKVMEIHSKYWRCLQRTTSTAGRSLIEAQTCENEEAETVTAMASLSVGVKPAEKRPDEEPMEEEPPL

AML = test: Induction of apoptosis in AML patient blasts at 5 uM after 26 hrs; type: functional; conditions: Homo sapiens
[10] = biological target: T2, NAD-dependent protein deacetylase sirtuin-1 (Homo sapiens) (UniProt Q96EB6); test: Inhibition of human recombinant SIRT1 using KI-177 as substrate at 5 uM after 30 mins by fluorescence assay
T2 sequence (whole entry): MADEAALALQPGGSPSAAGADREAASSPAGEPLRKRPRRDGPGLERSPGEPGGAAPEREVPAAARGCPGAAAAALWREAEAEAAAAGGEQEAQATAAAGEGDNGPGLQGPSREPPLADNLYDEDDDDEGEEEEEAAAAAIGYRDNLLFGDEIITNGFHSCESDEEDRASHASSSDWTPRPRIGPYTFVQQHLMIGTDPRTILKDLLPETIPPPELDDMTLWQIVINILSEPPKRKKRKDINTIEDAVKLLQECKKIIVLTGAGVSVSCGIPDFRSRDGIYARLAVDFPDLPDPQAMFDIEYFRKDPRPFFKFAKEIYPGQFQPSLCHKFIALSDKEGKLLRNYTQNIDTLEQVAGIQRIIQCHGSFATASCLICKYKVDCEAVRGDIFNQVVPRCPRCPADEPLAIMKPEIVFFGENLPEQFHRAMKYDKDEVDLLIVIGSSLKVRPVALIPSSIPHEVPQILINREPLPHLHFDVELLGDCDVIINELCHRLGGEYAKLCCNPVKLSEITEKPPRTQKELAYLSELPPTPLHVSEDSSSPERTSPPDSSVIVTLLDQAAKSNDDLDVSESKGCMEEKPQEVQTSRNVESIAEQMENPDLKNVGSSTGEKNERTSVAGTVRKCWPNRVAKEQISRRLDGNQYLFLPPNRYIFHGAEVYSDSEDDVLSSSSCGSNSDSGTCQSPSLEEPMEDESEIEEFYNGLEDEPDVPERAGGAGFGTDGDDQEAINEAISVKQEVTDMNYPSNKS

[11] = biological target: DNA (cytosine-5)-methyltransferase 1 (Homo sapiens) (UniProt P26358); test: Inhibition of recombinant DNMT1 using S-adenosyl-L-[methyl-3H]methionine as substrate at 5 uM after 2 hrs by radioactive assay
Sequence of DNA (cytosine-5)-methyltransferase 1 (Homo sapiens) (P26358 whole entry): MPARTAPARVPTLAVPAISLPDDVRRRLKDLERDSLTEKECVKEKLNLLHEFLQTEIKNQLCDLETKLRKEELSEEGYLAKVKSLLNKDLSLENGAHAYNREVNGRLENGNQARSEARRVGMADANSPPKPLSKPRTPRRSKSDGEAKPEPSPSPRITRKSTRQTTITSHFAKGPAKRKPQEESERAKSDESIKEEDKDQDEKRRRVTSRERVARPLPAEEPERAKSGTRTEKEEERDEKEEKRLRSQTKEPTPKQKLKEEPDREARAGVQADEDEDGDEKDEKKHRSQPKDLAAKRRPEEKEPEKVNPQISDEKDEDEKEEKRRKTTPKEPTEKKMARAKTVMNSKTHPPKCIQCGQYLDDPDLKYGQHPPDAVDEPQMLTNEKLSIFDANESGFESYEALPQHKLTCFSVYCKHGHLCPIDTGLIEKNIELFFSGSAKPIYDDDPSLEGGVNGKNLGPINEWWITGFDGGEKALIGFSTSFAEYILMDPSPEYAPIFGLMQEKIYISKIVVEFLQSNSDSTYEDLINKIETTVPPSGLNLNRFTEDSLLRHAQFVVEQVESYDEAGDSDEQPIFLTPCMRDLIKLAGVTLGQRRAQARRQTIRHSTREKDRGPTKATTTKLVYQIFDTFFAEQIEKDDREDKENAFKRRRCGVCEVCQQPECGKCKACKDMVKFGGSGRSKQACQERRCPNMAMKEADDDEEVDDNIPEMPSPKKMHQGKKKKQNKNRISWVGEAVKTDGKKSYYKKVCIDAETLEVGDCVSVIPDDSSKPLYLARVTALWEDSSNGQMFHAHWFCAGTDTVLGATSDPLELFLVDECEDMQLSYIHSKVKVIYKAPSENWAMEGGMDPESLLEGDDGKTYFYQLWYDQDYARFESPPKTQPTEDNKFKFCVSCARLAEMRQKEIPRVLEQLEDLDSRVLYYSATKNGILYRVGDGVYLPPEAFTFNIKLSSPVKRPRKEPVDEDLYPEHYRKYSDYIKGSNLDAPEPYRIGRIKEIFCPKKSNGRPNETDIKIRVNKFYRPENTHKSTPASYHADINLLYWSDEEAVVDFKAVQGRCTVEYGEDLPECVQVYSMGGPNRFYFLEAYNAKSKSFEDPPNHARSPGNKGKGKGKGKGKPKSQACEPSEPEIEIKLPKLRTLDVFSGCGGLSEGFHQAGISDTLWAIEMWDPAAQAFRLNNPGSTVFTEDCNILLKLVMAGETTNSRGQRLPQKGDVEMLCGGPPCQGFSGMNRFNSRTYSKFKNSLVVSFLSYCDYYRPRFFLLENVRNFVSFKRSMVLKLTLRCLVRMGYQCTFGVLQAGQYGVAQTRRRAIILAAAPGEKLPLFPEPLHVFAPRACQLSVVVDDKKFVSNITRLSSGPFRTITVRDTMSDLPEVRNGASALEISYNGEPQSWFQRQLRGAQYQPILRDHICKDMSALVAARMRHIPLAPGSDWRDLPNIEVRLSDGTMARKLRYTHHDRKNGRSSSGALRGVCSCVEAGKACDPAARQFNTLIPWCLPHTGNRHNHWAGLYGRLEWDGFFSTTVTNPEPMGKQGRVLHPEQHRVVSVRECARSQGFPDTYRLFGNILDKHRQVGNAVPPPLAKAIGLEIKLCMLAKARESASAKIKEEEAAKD

[12] = biological target: DNA (cytosine-5)-methyltransferase 1 (Homo sapiens) (UniProt P26358); test: Inhibition of DNMT1 human U937 cells assessed as reactivation of p16 expression at 5 uM after 24 hrs by Western blot analysis; type: cell-based; conditions: U-937
[13] = biological target: T2, NAD-dependent protein deacetylase sirtuin-1 (Homo sapiens); test: Inhibition of SIRT1 in human U937 cells assessed as H3 acetylation on lysine K9 at 5 uM after 24 hrs by Western blot analysis; type: cell-based; conditions: U-937
[14] = biological target: T2, NAD-dependent protein deacetylase sirtuin-1 (Homo sapiens); test: Inhibition of SIRT1 in human U937 cells assessed as H3 acetylation on lysine K56 at 5 uM after 24 hrs by Western blot analysis; type: cell-based; conditions: U-937
[15] = biological target: T2, NAD-dependent protein deacetylase sirtuin-1 (Homo sapiens); test: Inhibition of SIRT1 in human MCF7 cells assessed as p53 acetylation on lysine 382 after 24 hrs by Western blot analysis; type: cell-based
U-937 [16] = test: Effect on DNMT1 level in human U937 cells at 0.5 to 5 uM after 24 hrs by Western blot analysis; type: functional, cell-based
[17] = biological target: DNA (cytosine-5)-methyltransferase 1 (Homo sapiens) (UniProt P26358); test: Inhibition of DNMT1 human u937 cells assessed as reactivation of p16 expression at 0.5 to 5 uM after 24 hrs by Western blot analysis
U-937 [18] = test: Cell cycle arrest in human U937 cells assessed as accumulation at G2M phase at 5 uM after 24 hrs by cytofluorimetric analysis; type: functional, cell-based
U-937 [19] = test: Cell cycle arrest in human U937 cells assessed as accumulation at G1 phase at 5 uM after 24 hrs by cytofluorimetric analysis; type: functional, cell-based
[20] = biological target: T2, NAD-dependent protein deacetylase sirtuin-1 (Homo sapiens); test: Inhibition of SIRT1 in human MCF7 cells assessed as p53 acetylation on lysine 382 at 5 uM after 24 hrs by Western blot analysis; type: cell-based

Sequence of Histone deacetylase 1 (Homo sapiens) (Q13547 whole entry): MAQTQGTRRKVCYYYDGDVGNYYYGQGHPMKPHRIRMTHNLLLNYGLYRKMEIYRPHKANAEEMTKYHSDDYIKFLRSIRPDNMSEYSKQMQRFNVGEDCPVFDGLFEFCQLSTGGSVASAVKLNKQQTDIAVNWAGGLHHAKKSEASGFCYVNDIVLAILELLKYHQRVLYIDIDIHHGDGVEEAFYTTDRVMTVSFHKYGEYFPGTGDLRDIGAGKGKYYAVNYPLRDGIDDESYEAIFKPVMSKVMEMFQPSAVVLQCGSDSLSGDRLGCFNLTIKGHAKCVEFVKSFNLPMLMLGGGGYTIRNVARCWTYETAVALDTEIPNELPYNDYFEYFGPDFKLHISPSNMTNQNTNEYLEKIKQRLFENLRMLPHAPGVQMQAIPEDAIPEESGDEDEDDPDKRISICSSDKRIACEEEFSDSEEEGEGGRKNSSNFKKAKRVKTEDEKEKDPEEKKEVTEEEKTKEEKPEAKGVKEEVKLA

SMILES | inhibition [1] | Activity [2] | inhibition [3] | inhibition [4] | inhibition [5] | Activity (U-937 [6]) | Activity (U-937 [7]) | Activity (U-937 [8]) | inhibition [9] | Activity (AML) | inhibition [10] | inhibition [11] | inhibition [12] | inhibition [13] | inhibition [14] | Activity (U-937 [16]) | inhibition [17] | inhibition [20] | further results
O=C(NCCSSCCNC(=O)/C(Cc1c[nH]c2c(Br)cccc12)=N/O)/C(Cc1c[nH]c2c(Br)cccc12)=N/O | 60% | Active | Active | Active | Active | Active | Active | Active | 40% | Active |  |  |  |  |  |  |  |  | 
Cn1cc(C/C(=N\O)C(=O)NCCSSCCNC(=O)/C(Cc2cn(C)c3ccc(Br)cc23)=N/O)c2cc(Br)ccc21 | Active |  | Active | Active | Active | Active |  | Active |  |  | inactive | inactive | Active | Active | Active | inactive | Active |  | inhibition [15]: Dose-dependent effect
CSCCNC(=O)/C(Cc1c[nH]c2ccc(Br)cc12)=N/O | 40% |  | Active | Active | Active | Active |  | inactive | 20% | Active | inactive | inactive |  | Active | Active | inactive | Active | Active | Activity (U-937 [18]): inactive; Activity (U-937 [19]): Active
O=C(NCCSSCCNC(=O)/C(Cc1ccc(O)c(Br)c1)=N/O)/C(Cc1ccc(O)c(Br)c1)=N/O |  | Active |  | Active |  |  |  | Active |  | Active |  |  |  |  |  |  |  |  | 
O=C(NCCSSCCNC(=O)/C(Cc1c[nH]c2ccc(Br)cc12)=N/O)/C(Cc1c[nH]c2ccc(Br)cc12)=N/O | 60% | Active | Active | Active | Active |  |  | Active | 40% | Active | Active | Active | Active |  |  | inactive | Active | Active | 
O=C(NCCSSCCNC(=O)/C(Cc1c[nH]c2cc(Br)ccc12)=N/O)/C(Cc1c[nH]c2cc(Br)ccc12)=N/O | 60% | Active | Active | Active | Active | Active | Active | Active | 40% | Active |  |  |  |  |  |  |  |  | 
